Data as given in US20240261375A1, “PHARMACEUTICAL COMPOSITION FOR TREATING OR PREVENTING DISORDER ASSOCIATED WITH ADMINISTRATION OF ANTICANCER AGENT” (LTT BIO-PHARMA CO., LTD., priority 2021, published 2024).

What was measured:
[1] = test system: Large intestine cancer cells (colo320, HCT116); assay: Proliferation of large intestine cancer cells (CCK-8); format: cell-based; conditions: OXA dilutions + PC-SOD 50 μg/mL, 72 hours; FIG. 6
Method: Large intestine cancer cells (colo320, HCT116) were added to RPM1640 medium (Thermo Fisher Scientific Inc.) containing 10% fetal bovine serum and 100 units/mL penicillin-streptomycin (Gibco BRL) and cultured at 37° C. in a 5% CO2 incubator.
Cells were seeded on a 96-well plate at 10 000 cells/well and treated with a test solution 24 hours later. A test solution containing OXA alone was diluted 3-fold from 100 μM (10 levels) and added to a 96-well plate. A test solution containing OXA+PC-SOD was obtained by adding the same concentrations of OXA to PC-SOD (50 μg/mL) (n=3 per group). After cells were cultured for 72 hours, a CCK-8 solution was added in a volume of 1/10 of the solution in each well, and the mixture was measured at 490 nm of absorbance (Tecan, Tecan Japan). Data were expressed with mean±standard error (SEM). It should be noted that experiment conditions were allowed to be changed as required.

[2] = test system: kidney of CIS-treated rats; assay: Assessment of kidney disorder caused by cisplatin in rats; format: in vivo, rat; conditions: CIS 3 mg/kg i.p. 8 doses
Method: (§1) Six to eight-week-old male SD rats (from 200 to 400 g) were used. […] A total of eight doses were given with a regimen of twice weekly for four weeks (Days 1, 2, 7, 8, 13, 14, 19, and 20). A solvent for CIS, i.e., physiological saline, was similarly administered to a control group. […] Laboratory animals were divided into three groups: a control group, a CIS administration group, and a group receiving administration of CIS and PC-SOD 1 mg/kg (CIS+PC-SOD administration group) (n=6 per group).
For an experiment of prevention, PC-SOD was administered into the caudal vein from five to 15 minutes after CIS administration in the CIS+PC-SOD administration group. A total of eight doses were given with a regimen of twice weekly for four weeks (Days 1, 2, 7, 8, 13, 14, 19, and 20). A solvent for PC-SOD was similarly administered to the control group and the CIS administration group. The rat kidney weight was measured, and changes in the kidney weight were corrected with body weight. Further, a photograph of the kidney was taken to check changes in size and morphology of the kidney (Scale bar=10 mm).
For pathological analysis, a split was put in the sagittal plane of the collected kidney, and the kidney was fixed with 10% formalin to prepare a paraffin block by using Histos 5 (Milestone) and an embedding center (EG1160, Leica). The sample block was thinly sliced by using a microtome (MR2245, Leica) at a thickness of 3 μm to prepare a slide. The prepared slide was subjected to Periodic acid-Schiff (PAS) staining for assessment of clinical condition and Picrosirius Red staining for assessment of fibrosis. A fibrosis marker α-SMA was stained by an immunostaining method. […] Observation and assessment were performed by observing the whole section. Four to nine images of tissue on the cortical side on which the disorder was induced were randomly taken up, and inflammation, tubular necrosis, protein agglutination in renal tubules, vacuolation, and necrosis were assessed for changes in clinical condition. […] (Scale bar=500 μm (FIG. 11-1), Scale bar=200 μm (FIGS. 11-2 and 11-3)).

[3] = test system: peripheral blood cells of CIS-treated rats; assay: Assessment of myelosuppression caused by cisplatin (peripheral blood cell count); format: in vivo, rat; conditions: CIS 3 mg/kg i.p. 8 doses, PC-SOD 1 mg/kg caudal vein, FIG. 14
Method: as §1, with “group). For an experiment of prevention, PC-SOD was administered into the caudal vein from five to 15 minutes after CIS administration in the CIS+PC-SOD administration group. A total of eight doses were given with a regimen of twice weekly for four weeks, (Days 1, 2, 7, 8, 13, 14, 19, and 20). A solvent for PC-SOD was similarly administered to the control group and the CIS administration group. Peripheral blood was collected from the rat caudal vein three days later, and peripheral blood was analyzed by using an automated blood cell counter (MEK-6458, Nihon Kohden Corporation).” for “group).”

RAW cells [4] = assay: Active oxygen production in RAW cells (MitoSOX Red); format: cell-based; conditions: gemcitabine, oxaliplatin, cisplatin or carboplatin with simultaneous PC-SOD, 16 hours; FIG. 13-2
Method: RAW cells were seeded on a 96-well plate for fluorescence at 20 000 cells/well (D-MEM high glucose medium containing 10% inactivated FBS). […] Sixteen hours later, cells were treated with an HBSS solution containing dissolved MitoSOX™ Red Mitochondrial Superoxide Indicator (Invitrogen™) for 30 minutes, and the medium was replaced with D-MEM high glucose medium containing 1% inactivated FBS. Active oxygen production in mitochondria was determined by measuring fluorescence (Ex 510 nm, Em 580 nm) by using a plate reader (Infinite M Plex, Tecan). Cells for four wells were analyzed for each group.

RAW cells [5] = assay: Toxicity of anticancer agents against RAW cells (CellTiter-Glo viable cell count); format: cell-based; conditions: gemcitabine, oxaliplatin, cisplatin or carboplatin with simultaneous PC-SOD, 24 hours; FIG. 12-2
Method: RAW cells were seeded on a 96-well plate at 20 000 cells/well (D-MEM high glucose medium containing 10% inactivated FBS). […] The number of viable cells was counted 24 hours later by measuring chemical luminescence by using CellTiter-Glo™ 2.0 Cell Viability Assay (Promega) and a plate reader (Tecan, Infinite M Plex). Cells for four wells were analyzed for each group.

[6] = test system: L5 DRG neurons of OXA-treated rats; assay: Assessment of pathological damage to DRG (HE staining); format: in vivo, rat; conditions: OXA+PC-SOD 1 mg/kg; FIG. 4
Source text: A tissue of L5 DRG neuron was collected, stored in a 10% neutral buffered formalin solution, fixed, and then washed with PBS. The tissue was subjected to 70% ethanol substitution to prepare a paraffin block, and the block was thinly sliced and subjected to HE staining. The thickness of the thinly sliced sample block was from 2 to 3 μm. By using the prepared pathological sample slide, one to three images of each sample were captured at 200 and 400-fold magnifications by the optical microscope function of All-in-One Fluorescence Microscope (BZ-X800, Keyence Corporation). Multinucleation of the nucleolus of DRG neurons and abnormal morphology of the nucleolus were assessed as indicators of DRG neuron disorder (Scale bar=50 μm).

lecithinized superoxide dismutase [PC-SOD]
influence on the anti-tumor effect of oxaliplatin (cell proliferation) [1]: did not affect the anti-tumor effect of oxaliplatin
increase in kidney weight and swelling of the kidney caused by CIS ([2]; PC-SOD 1 mg/kg caudal vein, FIG. 10-1, 10-2): the suppressive effect on an increase in the kidney weight and swelling of the kidney caused by CIS was confirmed
pathological damage to the kidney caused by CIS (PAS staining) ([2]; PC-SOD 1 mg/kg, FIG. 11-1): a suppressive effect on pathological damage to the kidney caused by CIS was observed
renal fibrosis caused by CIS (Picrosirius Red and α-SMA staining) ([2]; PC-SOD 1 mg/kg, FIG. 11-2, 11-3): decreases of fibrosis-positive regions in the kidney caused by CIS were detected
decrease in platelets (PLTs) caused by CIS [3]: decreases in WBCs and PLTs were suppressed
decrease in white blood cells (WBCs) caused by CIS [3]: decreases in WBCs and PLTs were suppressed
anticancer agent-dependent production of active oxygen in RAW cells (RAW cells [4]): significantly suppressed the anticancer agent-dependent production of active oxygen dependently on the concentration of PC-SOD
anticancer agent-dependent decrease in number of viable RAW cells (RAW cells [5]): significantly suppressed the anticancer agent-dependent decreases in the number of viable cells dependently on the concentration of PC-SOD
pathological damage to DRG caused by OXA (multinucleation and abnormal morphology of nucleoli) [6]: a suppressive effect on pathological damage to DRG caused by OXA was shown
